≈ marks a conversion by molar mass, not a printed value. Read-outs that look alike come from different tables or passages of the source.
Tests used:
Format in all cases: cell-based
[1] = system: Klebsiella pneumoniae; assay: MIC and MBC, broth microdilution (Example 4, Table 3); conditions: Klebsiella pneumoniae; for MIC: read-out: MIC
[2] = system: Escherichia coli; assay: as above; conditions: for MBC: read-out: MBC; for MIC: read-out: MIC
[3] = system: Enterobacter cloacae complex; assay: as above; conditions: Enterobacter cloacae complex CDC-164 (NMC-A)
[4] = system: Acinetobacter baumannii; assay: as above; conditions: for MBC: Acinetobacter baumannii
[5] = system: Bacteroides spp.; assay: MIC, agar dilution, anaerobic bacteria (Example 9, Tables 17, 22); conditions: for MIC: (n)=Compound A µg/mL, 0=Compound A alone antibacterial
[6] = ATCCBAA2344, Klebsiella pneumoniae ATCC BAA-2344 (KPC-2)
[7] = ATCCBAA2470, Klebsiella pneumoniae ATCC BAA-2470 (NDM-1)
[8] = ATCCBAA2524, Klebsiella pneumoniae ATCC BAA-2524 (OXA-48)
[9] = Klebsiella pneumoniae CDC-112 (KPC-3)
[10] = Klebsiella pneumoniae CDC-505 (NDM-1)
[11] = Klebsiella pneumoniae KUB3607 (IMP-1)
[12] = NCTC13440, Klebsiella pneumoniae NCTC13440 (VIM-1)
[13] = ATCCBAA2340, Escherichia coli ATCC BAA-2340 (KPC-3)
[14] = ATCCBAA2469, Escherichia coli ATCC BAA-2469 (NDM-1)
[15] = Escherichia coli NCTC13476 (IMP-1)
[16] = Acinetobacter baumannii CDC-303 (OXA-23, OXA-66)

C[C@@H](O)[C@H]1C(=O)N2C(C(=O)O)=C(S[C@@H]3CN[C@H](C(=O)N(C)C)C3)[C@H](C)[C@H]12 [MEPM, meropenem]
MBC [1, 6]: 32 µg/mL (≈ 83.4 µM)
MIC [1, 6]: 16 µg/mL (≈ 41.7 µM)
MBC [1, 7]: 32 µg/mL (≈ 83.4 µM)
MIC [1, 7]: 32 µg/mL (≈ 83.4 µM)
MBC [1, 8]: 4 µg/mL (≈ 10.4 µM)
MIC [1, 8]: 1 µg/mL (≈ 2.61 µM)
MBC [1, 9]: 32 µg/mL (≈ 83.4 µM)
MIC [1, 9]: 32 µg/mL (≈ 83.4 µM)
MBC [1, 10]: 64 µg/mL (≈ 167 µM)
MIC [1, 10]: 64 µg/mL (≈ 167 µM)
MBC [1, 11]: 8 µg/mL (≈ 20.9 µM)
MIC [1, 11]: 8 µg/mL (≈ 20.9 µM)
MBC [1, 12]: 64 µg/mL (≈ 167 µM)
MIC [1, 12]: 16 µg/mL (≈ 41.7 µM)
MBC [2, 13]: 8 µg/mL (≈ 20.9 µM)
MIC [2, 13]: 4 µg/mL (≈ 10.4 µM)
MBC [2, 14]: 32 µg/mL (≈ 83.4 µM)
MIC [2, 14]: 32 µg/mL (≈ 83.4 µM)
MBC [2, 15]: 8 µg/mL (≈ 20.9 µM)
MIC [2, 15]: 4 µg/mL (≈ 10.4 µM)
MBC [3]: 32 µg/mL (≈ 83.4 µM)
MIC [3]: 32 µg/mL (≈ 83.4 µM)
MIC [4, 16]: 64 µg/mL (≈ 167 µM)
MIC ([4]; Acinetobacter baumannii CDC-304 (OXA-66, OXA-72), read-out: MIC): 64 µg/mL (≈ 167 µM)
MBC [4, 16]: 64 µg/mL (≈ 167 µM)
MBC ([4]; Acinetobacter baumannii CDC-304 (OXA-66, OXA-72)): 64 µg/mL (≈ 167 µM)
MIC50 ([5]; Bacteroides spp.): 0.5 µg/mL (≈ 1.3 µM)
MIC90 ([5]; Bacteroides spp.): 4 µg/mL (≈ 10.4 µM)
MIC ([5]; Bacteroides, KUB No. 2982 Bacteroidesfragilis): 0.12 µg/mL (≈ 0.313 µM)
MIC ([5]; Bacteroides, KUB No. 6464 Bacteroides vulgarus): 0.12 µg/mL (≈ 0.313 µM)
MIC ([5]; Bacteroides, KUB No. 6480 Bacteroides thetaioraomicron): 1 µg/mL (≈ 2.61 µM)
MIC ([5]; Bacteroides, KUB No. 6487 Bacteroides thetaiotamicron): 2 µg/mL (≈ 5.22 µM)
MIC50 ([5]; Bacteroides, n=56, combination: Compound A at 4 ug/mL, read-out: MIC50): 0.5 µg/mL
MIC90 ([5]; Bacteroides, n=56, combination: Compound A at 4 ug/mL, read-out: MIC90): 4 µg/mL
MIC ([5]; KUB No. 2977 Bacteroides thetaiotaomicron ATCC 29741): 0.25 µg/mL (≈ 0.652 µM)
MIC ([5]; KUB No. 2983 Bacteroides fragilis): 4 µg/mL (≈ 10.4 µM)
MIC ([5]; KUB No. 2984 Bacteroides thetaiotaomicron): 0.25 µg/mL (≈ 0.652 µM)
MIC ([5]; KUB No. 3003 Bacteroides fragilis ATCC 25285): 0.12 µg/mL (≈ 0.313 µM)
MIC ([5]; KUB No. 3009 Bacteroides ovatus): 1 µg/mL (≈ 2.61 µM)
MIC ([5]; KUB No. 6458 Bacteroides fragilis): 0.5 µg/mL (≈ 1.3 µM)
MIC ([5]; KUB No. 6459 Bacteroides stercoris): 0.25 µg/mL (≈ 0.652 µM)
MIC ([5]; KUB No. 6460 Bacteroides thetaiotaomicron): 2 µg/mL (≈ 5.22 µM)
MIC ([5]; KUB No. 6461 Bacteroides fragilis): 0.5 µg/mL (≈ 1.3 µM)
MIC ([5]; KUB No. 6463 Bacteroides fragilis): 0.12 µg/mL (≈ 0.313 µM)
MIC ([5]; KUB No. 6465 Bacteroides thetaiotaomicron): 0.5 µg/mL (≈ 1.3 µM)
MIC ([5]; KUB No. 6466 Bacteroides fragilis): 4 µg/mL (≈ 10.4 µM)
MIC ([5]; KUB No. 6467 Bacteroides fragilis): 0.12 µg/mL (≈ 0.313 µM)
MIC ([5]; KUB No. 6468 Bacteroides fragilis): 4 µg/mL (≈ 10.4 µM)
MIC ([5]; KUB No. 6469 Bacteroides fragilis): 0.25 µg/mL (≈ 0.652 µM)
MIC ([5]; KUB No. 6470 Bacteroides fragilis): 0.25 µg/mL (≈ 0.652 µM)
MIC ([5]; KUB No. 6471 Bacteroides fragilis): 0.12 µg/mL (≈ 0.313 µM)
MIC ([5]; KUB No. 6472 Bacteroides stercoris): 1 µg/mL (≈ 2.61 µM)
MIC ([5]; KUB No. 6473 Bacteroides fragilis): 0.25 µg/mL (≈ 0.652 µM)
MIC ([5]; KUB No. 6474 Bacteroides fragilis): 1 µg/mL (≈ 2.61 µM)
MIC ([5]; KUB No. 6475 Bacteroides thetaiotaomicron): 2 µg/mL (≈ 5.22 µM)
MIC ([5]; KUB No. 6476 Bacteroides vulgatus): 0.5 µg/mL (≈ 1.3 µM)
MIC ([5]; KUB No. 6477 Bacteroides fragilis): 4 µg/mL (≈ 10.4 µM)
MIC ([5]; KUB No. 6478 Bacteroides fragilis): 0.12 µg/mL (≈ 0.313 µM)
MIC ([5]; KUB No. 6481 Bacteroides fragilis): 0.12 µg/mL (≈ 0.313 µM)
MIC ([5]; KUB No. 6483 Bacteroides fragilis): 0.12 µg/mL (≈ 0.313 µM)
MIC ([5]; KUB No. 6484 Bacteroides fragilis): 0.25 µg/mL (≈ 0.652 µM)
MIC ([5]; KUB No. 6485 Bacteroides vulgatus): 8 µg/mL (≈ 20.9 µM)
MIC ([5]; KUB No. 6486 Bacteroides fragilis): 0.12 µg/mL (≈ 0.313 µM)
MIC ([5]; KUB No. 6490 Bacteroides fragilis): 64 µg/mL (≈ 167 µM)
MIC ([5]; KUB No. 6491 Bacteroides fragilis): 16 µg/mL (≈ 41.7 µM)
MIC ([5]; KUB No. 6493 Bacteroides thetaiotaomicron): 0.25 µg/mL (≈ 0.652 µM)
MIC ([5]; KUB No. 6496 Bacteroides fragilis): 0.12 µg/mL (≈ 0.313 µM)
MIC ([5]; KUB No. 6497 Bacteroides vulgatus): 0.12 µg/mL (≈ 0.313 µM)
MIC ([5]; KUB No. 6502 Bacteroides fragilis): 16 µg/mL (≈ 41.7 µM)
MIC ([5]; KUB No. 6503 Bacteroides thetaiotaomicron): 0.5 µg/mL (≈ 1.3 µM)
MIC ([5]; KUB No. 6504 Bacteroides caccae): 0.25 µg/mL (≈ 0.652 µM)

Reference: patent publication EP4635500A1, “THERAPEUTIC AGENT FOR BACTERIAL INFECTION” (Sumitomo Pharma Co., Ltd., priority 2022, dated 2024)
